# Source: patent US7473708B2, “Agents with leukotriene B4-like antiviral (enveloped RNA) activities” (priority 1996, dated 2009)
# Values joined by “and” are separate entries in the source; they are usually repeats but may differ in a detail not shown here. Equal entries are not always repeated. “Also recorded” adds a separate entry of the source.
# Legend:
# HSV-1 (strain McIntyre) = assay: Detection of specific HSV-1 antigen in HSV-1-infected PBMC (immunofluorescence); format: cell-based, human; conditions: specific antiserum from a chronically infected donor
# Experimental: Synthesis of the viral antigen was inhibited by 60% in the presence of 100 nM LTB4 (FIG. 4). The results illustrated in FIG. 4 are representative of five (5) other experiments.
# PBMC were infected with EBV and HSV-1 and treated or not with 100 nM of analogs of LTB4 such as 20-OH-LTB4, LTA3 methyl ester, 12(R)-HETE and 5(S), 15(S)-diHETE. After six days of culture, the presence of EBNA antigen (a consequence of EBV infection) was evaluated by the ACIF test, as described in Example I. Similarly, the presence of HSV-1 antigen in PBMC was evaluated by immunofluorescence using an antiserum obtained from a chronically infected donor as described above in section entitled “Detection of Specific HSV-1 Antigen”. […] The results illustrated in Table 1 are representative of three other experiments.
# EBV = assay: EBV-induced tumor formation in SCID mice given human PBL
# HSV-1 strain E-377 = assay: HSV-1 infection in vivo, hairless mice
# HIV-1IIIB = assay: Reverse transcriptase activity in HIV-1-infected PBMC; format: cell-based, human; conditions: LTB4 in culture media (100 nM elsewhere in the source), two weeks of culture
# Experimental: PBMC were resuspended at a density of 10^6 cells/ml in culture medium (RPMI-1640 supplemented with 10% FBS), and cultured in the presence of 3 μg/ml PHA-P (Sigma, St.Louis, Mo.) and 30 U/ml of recombinant human IL-2 for 2 to 3 days at 37° C. under a 5% CO2 atmosphere. PHA-stimulated PBMC were resuspended at 1×10^6 cells/ml and were infected with HIV-1IIIB (various multiplicity of infection: number of infectious virus particles/target cell) in the absence or the presence of increasing concentrations of LTB4 (0, 30, 100, and 200 nM). The culture media were changed twice a week and appropriate amounts of LTB4 were added at every medium change. […] Virus replication was monitored either by reverse transcriptase or p24 assays. […]
# Enzymatic activity was measured with 50 μl of cell-free supernatant to which 10 μl of a solution A (5 mM dithiothreitol, 50 mM KCl, 0.05% Triton X-100) and 40 μl of a solution B (5 mM MgCl2, […], 0.04 mg of poly(rA)-oligo(dT)12-18, […] [^3H]TTP (40 to 70 Ci/mmol) had been added. After incubation for 1 hour at 37° C., samples were precipitated with one volume of a solution containing 0.15% pyrophosphate and 1.66% trichloroacetic acid prior filtration onto glass fiber filters by using a cell harvester system. The filters were dried and radioactivity was measured in a liquid scintillation counter (1205/1204 BS Beta-plate; Wallac Oy, Turku, Finland). […]
# HIV-1 = assay: Synthesis of HIV-1 particles in J1.1 cells (end-point titration, TCID50); format: cell-based; conditions: for percentage of inhibition of HIV-1 particles synthesis: 48 hours
# Experimental: This set of experiments was carried out with the J1.1 cell line, a latently […] cell line derived from the parental cell line Jurkat E6.1. J1.1 cells were resuspended at a density of 10^6 cells/ml in culture medium (RPMI-1640 supplemented with 10% FBS) and were stimulated with the phorbol ester PM-A (20 ng/ml) in the absence or the presence of increasing concentrations of LTB4 (0,30, 100 nM). LTB4 was again added (to the same concentrations) 24 hours after the initiation of the cultures.
# End-point titration was carried out in flat-bottom microtiter wells using four parallel series of ten-fold dilutions of cell-free supernatants. After 5 to 7 days of incubation with MT-4 cells, cell-free supernatants were harvested and tested for the major viral core p24 protein by a commercially available enzymatic assay. The TCID50 was calculated by the method of Reed and Muench.
# [1] = EBV-infected, LTB4 i.p. 10 then 5 μg/mouse, day 42
# [2] = LTB4 10 μg i.p. days 0, 1, 3, 5, 7, 9
compound,measurement,setting,value
"CCCCC/C=C\C[C@@H](O)/C=C/C=C/C=C\[C@@H](O)CCCC(=O)O [LTB4, 5S,12R-dihydroxy-6,8,10,14 (Z,E,E,Z)-eicosatetraenoic acid]",inhibition of synthesis of HSV-1 antigen,HSV-1 (strain McIntyre),75%
same,Splenomegaly: Enlarged (mice affected / mice in group),EBV; [1],6/9
same,Splenomegaly: Normal (mice affected / mice in group),EBV; [1],1/9
same,Splenomegaly: Very enlarged (mice affected / mice in group),EBV; [1],2/9
same,Tumor size 800-1500 mm^3 (mice affected / mice in group),EBV; [1],3/9
same,Tumor size <800 mm^3 (mice affected / mice in group),EBV; [1],6/9
same,Tumor size >1500 mm^3 (mice affected / mice in group),EBV; [1],0/9
same,tumor growth induced by EBV,"EBV; SCID mice, 42 days",reduces tumor growth induced by EBV
same,behaviour and survival of uninfected mice treated with LTB4 alone,"EBV; uninfected SCID mice, LTB4 i.p., 42-day period",behaved normally and survived throughout the 42-day period
same,course of skin lesions,"HSV-1 strain E-377; HSV-1-infected hairless mice, LTB4 i.p.",regressed from day 8; also recorded: smaller and disappeared more rapidly
same,Survival at day 14,"HSV-1 strain E-377; HSV-1-infected, LTB4 10 μg i.p.",100%
same,"Infection-associated symptoms score, Day 4",HSV-1 strain E-377; [2],0
same,"Infection-associated symptoms score, Day 6",HSV-1 strain E-377; [2],0
same,"Infection-associated symptoms score, Day 8",HSV-1 strain E-377; [2],0
same,"Infection-associated symptoms score, Day 10",HSV-1 strain E-377; [2],0
same,"Size of infected skin lesions, Day 4",HSV-1 strain E-377; [2],≤ 0.5 cm
same,"Size of infected skin lesions, Day 6",HSV-1 strain E-377; [2],1-3 cm
same,"Size of infected skin lesions, Day 8",HSV-1 strain E-377; [2],1-3 cm
same,"Size of infected skin lesions, Day 10",HSV-1 strain E-377; [2],≤ 0.2 cm
same,lesions smaller than those of HSV-1-infected untreated Group 2,HSV-1 strain E-377; lesions developed from days 0 to 4,~80%
same,infection-associated symptoms and general status,HSV-1 strain E-377; throughout the experiment,posterior limb inflammation and skinniness were not observed
same,reduction of reverse transcriptase (viral) activity,HIV-1IIIB,more than 70%
same,percentage of inhibition of HIV-1 particles synthesis,HIV-1; LTB4 30 nM,49% and 50% and 56%
same,percentage of inhibition of HIV-1 particles synthesis,HIV-1; LTB4 100 nM,55% and 61% and 79%
same,inhibition of formation of new HIV-1 particles,HIV-1; concentration not stated (summary),> 55%
